Read-outs that look alike come from different tables or passages of the source. Oligonucleotides are written 5' to 3', each unit as a sugar letter and its base; * is a phosphorothioate linkage, no mark a phosphodiester; rarer units and linkages stand in square brackets, end groups in braces. Plain capitals give the bases only. {P} = phosphate; d = 2'-deoxy (DNA); m = 2'-O-methyl; r = 2'-OH (RNA); f = 2'-fluoro

In general, EC50 refers to the concentration giving half of the maximal effect.

In data set [1] the test system is TGF-β1. Put plainly: EC50 of TGF-β1 siRNA candidates before and after modification, knockdown in cells. It counts as cell-based, human. How it is done: DLD-1, RKO, U87-MG and PANC-1 cells were seeded into 24-well cell plates (1 × 10^5/well), and then siRNAs (21mer or negative control) were transfected with commercial transfection reagent (lipo2000). The siRNA transfection concentration was 100 nM. Untreated cells were set as a blank control. Total RNA was extracted from cells 24 h after transfection. Reverse transcription was performed using the kit to obtain cDNA according to the manufacturer’s instructions. Relative levels of target gene TGF- β1 mRNA expression were determined by real-time PCR, normalized to the housekeeping gene β-actin. Gene knockdown effectiveness was expressed as a percentage of the blank control. […] Therefore, TF1-21-hm3# and TF1-21-hm6# were selected as candidate sequences, and these two sequences were modified (see Table 4 for modified sequences).
The EC50 of candidate sequences before and after modification in different cells (U87-MG, DLD-1, SK-Hep-1, BxPC3, A549, HUCCT, PANC-1 and RKO) were compared. U87-MG, DLD-1, SK-Hep-1, BxPC3, A549, HUCCT, PANC-1 and RKO cells were seeded in 24-well cell plates (1 × 10^5/well) and transfected with multiple concentration gradients in different cells for siRNA candidates (modified or unmodified), use the same procedure as for primary screening. Finally, the data were plotted using the software GraphPad Prism8 and EC50 values were calculated.

For data set [2], the system named is TGF-β1. Described as above. The format is cell-based. The following applies: 293T cells, homo, 24h, 24well (second TGF-β1 table).
The mark [3] stands for this setting: A549 cells, homo, 24 h, 24well (Table 6), read-out: EC50 (nM, 24 h, 24well) A549.
Setting [4] is: A549 cells, homo, 24h, 24well (second TGF-β1 table), read-out: EC50 (24h, nM, 24well) A549.
Where [5] appears, read: BxPC3 cells, homo, 24 h, 24well (Table 6), read-out: EC50 (nM, 24 h, 24well) BxPC3.
Where [6] appears, read: DLD-1 cells, Homo, 24h, 24well (second TGF-β1 table), read-out: EC50 (24h, nM, 24well) DLD-1.
Where [7] appears, read: DLD-1 cells, homo, 24 h, 24well (Table 6), read-out: EC50 (nM, 24 h, 24well) DLD-1.
[8] abbreviates: Hucct cells, homo, 24 h, 24well (Table 6), read-out: EC50 (nM, 24 h, 24well) Hucct.
Where [9] appears, read: Hucct cells, homo, 24h, 24well (second TGF-β1 table), read-out: EC50 (24h, nM, 24well) Hucct.
Where [10] appears, read: PANC-1 cells, homo, 24 h, 24well (Table 6), read-out: EC50 (nM, 24 h, 24well) PANC-1.
Setting [11] is: PANC-1 cells, homo, 24h, 24well (second TGF-β1 table), read-out: EC50 (24h, nM, 24well) PANC -1.
[12] abbreviates: RKO cells, homo, 24 h, 24well (Table 6), read-out: EC50 (nM, 24 h, 24well) RKO.
[13] abbreviates: RKO cells, homo, 24h, 24well (second TGF-β1 table), read-out: EC50 (24h, nM, 24well) RKO.
The mark [14] stands for this setting: SK-Hep1 cells, homo, 24 h, 24well (Table 6), read-out: EC50 (nM, 24 h, 24well) SK-Hep1.
Setting [15] is: U87MG cells, homo, 24 h, 24well (Table 6), read-out: EC50 (nM, 24 h, 24well) U87MG.
Setting [16] is: U87MG cells, homo, 24h, 24well (second TGF-β1 table), read-out: EC50 (24h, nM, 24well) U87M G.

As to “TF1-21-hm3#: siRNA targeting TGF-β1 mRNA; sense SEQ ID 23, antisense SEQ ID 33 (sense AACUAUUGCUUCAGCUCCATT; antisense UGGAGCUGAAGCAAUAGUUTT; sugars from the 5' end r19 d2, backbone not given here)”, the concentration giving a half-maximal response (EC50) is 1.36 nM in the data set with TGF-β1 [1] (setting [3]); 1.4 nM with TGF-β1 [1] (setting [4]); 0.25 nM in the data set with TGF-β1 [1] (setting [5]); 11.9 nM in the data set on TGF-β1 [1] (BxPC 3 cells, homo, 24h, 24well (second TGF-β1 table), read-out: EC50 (24h, nM, 24well) BxPC 3); 0.2 nM with TGF-β1 [1] (setting [6]); 0.15 nM with TGF-β1 [1] (setting [7]). Besides, the half-maximal effective concentration (EC50) in the data set on TGF-β1 [1] (setting [8]) was 0.03 nM; with TGF-β1 [1] (setting [9]) it was 0.029 nM; in the data set with TGF-β1 [1] (setting [10]) it was 6.65 nM; with TGF-β1 [1] (setting [11]), 6.6 nM; in the data set with TGF-β1 [1] (setting [12]) it was 0.1 nM; in the data set on TGF-β1 [1] (setting [13]), 0.1 nM. The figures for the 50% effective concentration (EC50) in the data set on TGF-β1 [1] (setting [14]), with TGF-β1 [1] (setting [15]) and in the data set with TGF-β1 [1] (setting [16]) were 3.16 nM, 0.29 nM and 0.3 nM, respectively.

“TF1-21-hm3#mod: Modified (2′F, 2′OME, phosphorylation) siRNA targeting TGF-β1; sense SEQ ID 147, antisense SEQ ID 151 (sense mAmAmCmUmAmUfUfGfCmUmUmCmAmGmCmUmCmCmAdTdT; antisense {P}-mUfGmGmAmGmCmUmGmAmAmGmCmAfAmUmAmGmUmUdTdT)”: the EC50 stood at 0.04 nM in the data set with TGF-β1 [1] (setting [3]); 0.04 nM in the data set on TGF-β1 [1] (setting [4]); 0.17 nM in the data set on TGF-β1 [1] (setting [5]); 0.02 nM in the data set on TGF-β1 [1] (setting [7]); 0.02 nM in the data set on TGF-β1 [1] (setting [10]); 0.08 nM in the data set with TGF-β1 [1] (setting [12]). Also, the EC50 was 0.08 nM with TGF-β1 [1] (setting [13]), 2.64 nM in the data set on TGF-β1 [1] (setting [14]) and 1.48 nM with TGF-β1 [1] (setting [15]).

For “TF1-21-hm6#: siRNA targeting TGF-β1 mRNA; sense SEQ ID 26, antisense SEQ ID 36 (sense CGGCAGCUGUACAUUGACUTT; antisense AGUCAAUGUACAGCUGCCGTT; sugars from the 5' end r19 d2, backbone not given here)”, the EC50 with TGF-β1 [1] (setting [3]) turned out to be 3.02 nM; in the data set on TGF-β1 [1] (setting [4]), 3 nM; in the data set on TGF-β1 [1] (setting [5]) it was 0.03 nM; in the data set on TGF-β1 [1] (setting [6]), 0.9 nM; with TGF-β1 [1] (setting [7]) it was 0.85 nM; with TGF-β1 [1] (setting [8]) it was 0.01 nM. Further, the EC50 in the data set with TGF-β1 [1] (setting [9]) was 0.007 nM; with TGF-β1 [1] (setting [10]), 12.7 nM; with TGF-β1 [1] (setting [11]), 12.7 nM; in the data set with TGF-β1 [1] (setting [12]), 0.05 nM; in the data set with TGF-β1 [1] (setting [13]), 0.048 nM; in the data set with TGF-β1 [1] (setting [14]) it was 0.22 nM. Further, the half-maximal effective concentration (EC50) in the data set on TGF-β1 [1] (setting [15]) was 0.12 nM; in the data set on TGF-β1 [1] (setting [16]) it was 0.1 nM; in the data set on TGF-β1 [2] it was 0.11 nM.

On to “TF1-21-hm7#: siRNA targeting TGF-β1 mRNA; sense SEQ ID 27, antisense SEQ ID 37 (sense GGCAGCUGUACAUUGACUUTT; antisense AAGUCAAUGUACAGCUGCCTT; sugars from the 5' end r19 d2, backbone not given here)”, for which the EC50 in the data set on TGF-β1 [1] (setting [4]) was found to be 0.1 nM; in the data set with TGF-β1 [1] (setting [6]) it was 0.7 nM; with TGF-β1 [1] (setting [9]), 0.031 nM; in the data set on TGF-β1 [1] (setting [11]) it was 12 nM; in the data set with TGF-β1 [1] (setting [13]) it was 0.1 nM; in the data set on TGF-β1 [1] (setting [16]), 0.6 nM.

Consider “TF1-20190711-1#mod: Modified siRNA targeting TGF-β1; sense SEQ ID 149, antisense SEQ ID 153 (sense GCAGAGUACACACAGCAUATT; antisense UAUGCUGUGUGUACUCUGCTT; sense: sugars from the 5' end m6 f3 m10 d2, backbone not given here; antisense: sugars from the 5' end mfmmmmmmmmmmmfmmmmmdd, 5' {P}, backbone not given here)”, for which a half-maximal response in the data set on TGF-β1 [2] (EC50) required 0.25 nM.

Take “TF1-20190711-5#: siRNA targeting TGF-β1 mRNA; sense SEQ ID 9, antisense SEQ ID 10 (sense GAGUACACACAGCAUAUAUTT; antisense AUAUAUGCUGUGUGUACUCTT; sugars from the 5' end r19 d2, backbone not given here)”: in the data set with TGF-β1 [1] (SK-Hep 1 cells, homo, 24h, 24well (second TGF-β1 table), read-out: EC50 (24h, nM, 24well) SK-Hep 1), the concentration giving a half-maximal response (EC50) amounted to 9.8 nM.
